Reference: PMC12564639, “Discovery of a Novel Anticoagulant Cystine Knot Peptide from Spider Venom Gland Transcriptome” (International Journal of Molecular Sciences, 2025)
Peptide text beside a SMILES is read from it.

How the values were obtained:
[1] = test system: stasis-induced deep vein thrombosis in mice; test: Stasis-induced deep vein thrombosis (DVT) model; format: in vivo, C57BL/6J mice
Experimental: (§1) The C57BL/6J mice (male, 6–8 weeks old) were purchased from Beijing Vital River Laboratory Animal Technology Co., Ltd. (Beijing, China). All animal studies were performed under the approval of the Ethics Committee of the Laboratory Animal Welfare of the Kunming Institute of Zoology, Chinese Academy of Sciences (IACUC-RE-2025-03-010).
Male C57BL/6J mice (6–8 weeks old, n = 10 per group) were randomized to receive intravenous injections of PBS (vehicle control), GC38 (2 or 4 mg/kg), or heparin sodium (1000 U/kg) for the establishment of stasis-induced DVT models. […] Briefly, mice were anesthetized, and the IVC was exposed through a midline abdominal incision. […] Finally, the abdominal wall was closed carefully. At 24 h post-ligation, the IVC was resected, and thrombus formation was quantified by measuring the weight of the thrombi (n = 5). HE staining analysis of thrombus sections was performed to evaluate the extent of thrombosis (n = 5).

[2] = test system: plasma clotting (coagulation pathway); test: Plasma recalcification time (PRT); format: biochemical; details: fresh plasma, 10 min at 37 °C, n = 3
Experimental: Plasma recalcification time (PRT) was used to evaluate the effects of GC38 on the coagulation pathway. Fresh plasma was incubated with GC38 (0.1, 1, and 10 µM) for 10 min at 37 °C. After incubation, the plasma was mixed with an equal volume of 25 mM calcium chloride solution, and the timer was immediately started. The time required for plasma clot formation was recorded. The group treated with PBS served as the control. Each concentration was tested in triplicate, and the average value and PRT at maximum reactive velocity were reported.

[3] = test system: mouse red blood cells (RBCs); test: Hemolysis assay; format: cell-based; details: 50 μM; RBCs 1 × 10^8/mL in PBS, 37 °C, 30 min; absorbance 450 nm; versus 1% Triton X-100; n = 3
Experimental: The hemolytic activity of GC38 was assessed using mouse red blood cells (RBCs). Fresh […] blood was centrifuged at 1500 rpm for 5 min to isolate RBCs, followed by three washes with sterile PBS and resuspension in PBS with a density of 1 × 10^8 RBCs/mL. GC38 was diluted in PBS to concentrations ranging from 3.125 to 50 μM. For the assay, 100 µL of the RBC suspension was mixed with an equal volume of GC38 solution and incubated at 37 °C for 30 min. After incubation, the samples were centrifuged at 1500 rpm for 5 min to pellet intact RBCs. The absorbance of the supernatant was measured at 450 nm using a multi-mode microplate reader (BioTek Synergy™ H1, Winooski, VT, USA). PBS and 1% Triton X-100-treated groups served as negative and positive controls, respectively. The percentage of hemolysis was calculated by comparing the absorbance values of the samples to those of the controls. All concentrations underwent triplicate testing, with results presented as mean ± SEM.

[4] = test system: cortical photothrombotic stroke in mice; test: Rose Bengal-mediated cortical photothrombotic stroke (CPS) model; format: in vivo, mouse; details: n = 6; for blood flow reduction (cerebral): laser speckle perfusion, vehicle 40.1%
Experimental: as §1
The Rose Bengal-mediated CPS model was employed to induce focal cerebral ischemia in mice. Rose Bengal (50 mg/kg), a photosensitive dye, was administered intravenously 1 h before the surgery, followed by an intravenous injection of PBS (vehicle control), GC38 (2 or 4 mg/kg), and heparin sodium (1000 U/kg) 10 min before the surgery. Briefly, mice were anesthetized and secured in a stereotaxic frame. A midline scalp incision was made to expose the skull, followed by illumination with a 562 nm yellow-green laser (R-LG561-100-A5, RWD Life Science, Shenzhen, China) for 7 min. This process generated reactive oxygen species, resulting in endothelial damage and subsequent thrombus formation. Post-illumination, the scalp was sutured, and mice were placed on a warming pad for recovery. Cerebral ischemia severity was evaluated using the LSP imaging system, and the 15-day survival rates after ischemia induction were recorded.

[5] = test system: human plasma, extrinsic clotting cascade; test: Prothrombin time (PT); format: biochemical; details: GC38 0.1-10 μM; human plasma 20 μL, pre-incubation 5 min at 37 °C, PT reagent; scattered light; n = 3
Experimental: (§2) APTT and PT were measured with commercially available kits according to the manufacturer’s instructions. For APTT determination, 20 μL human plasma was pre-incubated with GC38 (0.1, 1, and 10 µM) at 37 °C for 5 min, and then 30 μL APTT reagent was added and incubated for another 5 min. Subsequently, 40 μL pre-warmed CaCl2 (37 °C) was added to initiate the intrinsic clotting cascade. The intensity of the scattered light was monitored until the signals reached saturation. For PT determination, 20 μL human plasma was pre-incubated with GC38 (0.1, 1, and 10 µM) at 37 °C for 5 min. Then, 75 μL PT reagent was added to initiate the extrinsic clotting cascade. The intensity of the scattered light was monitored until the signals reached saturation. The coagulation time (APTT or PT) was defined as the time point at which the scattered light signal reached the midpoint between the baseline and maximum amplitude. All concentrations were tested in triplicate. Results are shown as mean values, and the time at maximum reactive velocity was also reported.

[6] = test system: human plasma, intrinsic clotting cascade; test: Activated partial thromboplastin time (APTT); format: biochemical; details: GC38 10 μM; human plasma 20 μL, pre-incubation 5 min at 37 °C, APTT reagent 5 min, CaCl2; scattered light; mean, n = 3
Experimental: as §2

[7] = test system: mouse tail bleeding; test: Tail bleeding time; format: in vivo, C57BL/6J mice; details: n = 6; for tail bleeding time: 10 min after administration, vehicle 89.8 s
Experimental: as §1
The mouse tail-bleeding assay was performed to evaluate the bleeding risk associated with GC38 treatment. Male C57BL/6J mice (6–8 weeks, n = 6 per group) were randomized to receive intravenous injection of PBS (negative control), GC38 (2 or 4 mg/kg in PBS), or heparin sodium (1000 U/kg, positive control). The assay was conducted 10 min after administration. Mice were anesthetized, and a 2 mm segment of the tail tip was surgically transected using a sterile scalpel. Immediately after the incision, the tail was immersed in prewarmed PBS (37 °C) to facilitate blood flow. Bleeding time was recorded from the moment of the incision until the complete cessation of bleeding (no blood flow for 60 s).

SMILES: CSCC[C@@H]1NC(=O)[C@H](CC(N)=O)NC(=O)CNC(=O)CNC(=O)[C@H](Cc2c[nH]cn2)NC(=O)[C@H](CCCNC(=N)N)NC(=O)CNC(=O)[C@@H]2CSSC[C@@H]3NC(=O)[C@H](CCCNC(=N)N)NC(=O)[C@H](C)NC(=O)CNC(=O)[C@H](CCCCN)NC(=O)CNC(=O)[C@H](CO)NC(=O)[C@@H](NC(=O)CN)CSSC[C@H](NC(=O)[C@H](CSSC[C@@H](C(=O)N[C@@H](CCC(=O)O)C(=O)N[C@@H](Cc4c[nH]c5ccccc45)C(=O)N[C@@H](CC(N)=O)C(=O)N[C@@H](Cc4c[nH]c5ccccc45)C(=O)N[C@@H](CCCCN)C(=O)N[C@H](C(=O)NCC(=O)O)[C@@H](C)O)NC(=O)[C@H](CO)NC(=O)[C@H](CCCCN)NC(=O)[C@H](Cc4ccc(O)cc4)NC1=O)NC(=O)[C@H](CCCCN)NC(=O)[C@H](CO)NC(=O)[C@@H]1CCCN1C(=O)[C@H](C)NC3=O)C(=O)N[C@@H](CO)C(=O)NCC(=O)N[C@@H](CC(C)C)C(=O)N[C@@H](CO)C(=O)N2 [GC38] (HELM PEPTIDE1{G.C.S.G.K.G.A.R.C.A.P.S.K.C.C.S.G.L.S.C.G.R.H.G.G.N.M.Y.K.S.C.E.W.N.W.K.T.G}$PEPTIDE1,PEPTIDE1,2:R3-15:R3|PEPTIDE1,PEPTIDE1,9:R3-20:R3|PEPTIDE1,PEPTIDE1,14:R3-31:R3$$$V2.0)
- reduction of thrombus wet weight versus vehicle control ([1]; GC38 4 mg/kg i.v., 24 h after IVC ligation, n = 5 per group): 64.0%
- thrombus area (histology) ([1]; HE staining, IVC sections, 24 h after ligation, n = 5): decrease in thrombus area
- PRT clotting time versus negative control (time to Vmax) ([2]; GC38 10 μM, then 25 mM CaCl2, mean): 1.4 fold
- clotting time in plasma (PRT), dose response ([2]; GC38 0.1-10 μM, then equal volume 25 mM CaCl2): prolonged clotting time in plasma in a dose-responsive manner
- hemolytic activity [3]: below 3%
- blood flow reduction (cerebral) ([4]; GC38 2 mg/kg i.v. 10 min before surgery): 22.0%
- blood flow reduction (cerebral) ([4]; GC38 4 mg/kg i.v. 10 min before surgery): 6.4%
- microvascular occlusion and ischemic lesions ([4]; GC38 4 mg/kg i.v.): delayed microvascular occlusion and alleviated the formation of ischemic lesions
- 15-day survival rate ([4]; versus untreated group): improved the 15-day survival rate of mice
- prothrombin time (PT) effect [5]: no apparent effects on prothrombin time (PT)
- APTT extension versus control [6]: 1.4 fold
- tail bleeding time ([7]; GC38 2 mg/kg i.v.): 97.6 s
- tail bleeding time ([7]; GC38 4 mg/kg i.v.): 100.6 s
- tail bleeding time versus vehicle control ([7]; GC38 2 and 4 mg/kg i.v.): comparable to the vehicle control group
